The values below come from ChEMBL document CHEMBL1909046, “DrugMatrix in vitro pharmacology data”.

Assay [1] concerns the target Matrix metalloproteinase-9 (Homo sapiens, UniProt P14780). Briefly: biochemical. Format: cell-based.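 Further: inhibition of isolated MMP-9 enzyme activity toward a synthetic peptide substrate, from the DrugMatrix protease screening panel; in other assays of this panel Not Active means under 50% inhibition at 10 µM.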
Assay [2] addresses 5-hydroxytryptamine receptor 2B (Homo sapiens, UniProt P41595). Type of assay: cell membranes, CHO-K1, Membrane. As to conditions: cho-k1.
Assay [3] is described as follows: DRUGMATRIX: Phosphodiesterase PDE4 enzyme inhibition (substrate: [3H]cAMP + cAMP). As to conditions: u-937, Not Active = under 50% inhibition at 10 µM.
A further assay concerns the target T1, Interstitial collagenase (Homo sapiens, UniProt P03956).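 Further: MMP-1 enzyme inhibition assay using a peptide substrate; in other assays of this panel Not Active means under 50% inhibition at 10 µM.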
T1 sequence (P03956 whole entry): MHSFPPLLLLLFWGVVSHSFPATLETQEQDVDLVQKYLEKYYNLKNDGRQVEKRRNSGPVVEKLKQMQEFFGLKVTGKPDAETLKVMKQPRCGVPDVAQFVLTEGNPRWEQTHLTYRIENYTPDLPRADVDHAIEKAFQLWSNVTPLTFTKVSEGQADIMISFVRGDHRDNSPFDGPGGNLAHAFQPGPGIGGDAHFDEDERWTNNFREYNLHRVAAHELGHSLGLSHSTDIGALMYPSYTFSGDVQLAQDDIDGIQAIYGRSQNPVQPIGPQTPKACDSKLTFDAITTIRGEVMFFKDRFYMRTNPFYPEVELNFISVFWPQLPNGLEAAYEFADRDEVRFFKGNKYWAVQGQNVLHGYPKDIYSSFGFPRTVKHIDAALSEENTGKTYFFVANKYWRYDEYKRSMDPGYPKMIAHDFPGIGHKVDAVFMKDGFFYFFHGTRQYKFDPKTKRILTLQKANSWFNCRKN
Briefly: biochemical. Format: tissue-based, Rheumatoid synovial fibroblasts.

The target in assay [4] is T2, C-C chemokine receptor type 4 (Homo sapiens, UniProt P51679). Further: in other assays of this panel Not Active means under 50% inhibition at 10 µM.
T2 sequence (P51679 whole entry): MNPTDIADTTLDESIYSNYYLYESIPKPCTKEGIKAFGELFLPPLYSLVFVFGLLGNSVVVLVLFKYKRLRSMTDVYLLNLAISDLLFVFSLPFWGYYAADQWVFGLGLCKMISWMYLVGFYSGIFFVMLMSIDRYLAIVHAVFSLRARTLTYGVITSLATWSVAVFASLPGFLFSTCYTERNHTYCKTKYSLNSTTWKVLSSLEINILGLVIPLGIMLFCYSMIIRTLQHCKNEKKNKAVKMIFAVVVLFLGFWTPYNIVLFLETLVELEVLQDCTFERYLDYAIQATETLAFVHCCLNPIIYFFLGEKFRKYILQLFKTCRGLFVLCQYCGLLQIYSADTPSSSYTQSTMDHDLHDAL
Format: cell membranes, Chem-1, Membrane. The settings on record: chem-1.

A further assay has as its target T3, Leukotriene C4 synthase (Cavia porcellus, UniProt A6XA80).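 Further: enzyme inhibition assay of leukotriene C4 synthase, using LTA4 as the substrate; in other assays of this panel Not Active means under 50% inhibition at 10 µM.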
T3 sequence (A6XA80 whole entry): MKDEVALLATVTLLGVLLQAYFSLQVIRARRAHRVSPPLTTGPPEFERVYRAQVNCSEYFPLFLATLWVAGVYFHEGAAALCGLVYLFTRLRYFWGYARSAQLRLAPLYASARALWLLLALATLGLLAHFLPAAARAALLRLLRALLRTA
Format: tissue-based, Lung.

SMILES strings stand for the structures. *1 amine or outer side, *2 acyl side, *3 side chain or, on linkers, in order; H or OH if unused. Where a SMILES comes first, the peptide text is derived from it. Bridges are numbered along the chain shown (N, C = ends). Roman numbers before positions name the chains, in order. [ ]: non-standard residue; d: D form. Actinocin(1to9) = Cc1c2oc3c(C)ccc(C(=O)[*:2])c3nc-2c(C(=O)[*:1])c(N)c1=O; NMeV = CN[C@H](C(=O)O)C(C)C; Sar = CNCC(=O)O

Matrix metalloproteinase-9, sequence (P14780 whole entry): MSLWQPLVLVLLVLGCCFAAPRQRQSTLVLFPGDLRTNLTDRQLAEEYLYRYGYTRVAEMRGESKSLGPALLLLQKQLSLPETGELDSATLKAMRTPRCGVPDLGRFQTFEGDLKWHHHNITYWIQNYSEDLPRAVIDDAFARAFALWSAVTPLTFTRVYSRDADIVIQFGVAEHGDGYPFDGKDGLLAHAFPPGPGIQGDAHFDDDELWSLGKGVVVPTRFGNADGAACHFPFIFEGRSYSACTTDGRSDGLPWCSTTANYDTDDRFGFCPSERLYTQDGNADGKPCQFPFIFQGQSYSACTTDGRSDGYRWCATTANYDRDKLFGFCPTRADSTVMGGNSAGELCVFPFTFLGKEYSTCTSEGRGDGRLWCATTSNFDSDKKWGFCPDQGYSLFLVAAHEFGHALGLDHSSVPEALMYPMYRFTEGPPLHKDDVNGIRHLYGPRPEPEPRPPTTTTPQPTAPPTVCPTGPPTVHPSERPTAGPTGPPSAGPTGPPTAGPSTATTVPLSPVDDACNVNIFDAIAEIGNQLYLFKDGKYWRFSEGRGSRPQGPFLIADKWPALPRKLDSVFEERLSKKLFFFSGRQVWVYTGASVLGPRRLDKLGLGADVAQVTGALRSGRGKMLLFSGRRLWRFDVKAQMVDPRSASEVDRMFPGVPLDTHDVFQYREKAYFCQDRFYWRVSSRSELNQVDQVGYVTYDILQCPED
5-hydroxytryptamine receptor 2B, sequence (P41595 whole entry): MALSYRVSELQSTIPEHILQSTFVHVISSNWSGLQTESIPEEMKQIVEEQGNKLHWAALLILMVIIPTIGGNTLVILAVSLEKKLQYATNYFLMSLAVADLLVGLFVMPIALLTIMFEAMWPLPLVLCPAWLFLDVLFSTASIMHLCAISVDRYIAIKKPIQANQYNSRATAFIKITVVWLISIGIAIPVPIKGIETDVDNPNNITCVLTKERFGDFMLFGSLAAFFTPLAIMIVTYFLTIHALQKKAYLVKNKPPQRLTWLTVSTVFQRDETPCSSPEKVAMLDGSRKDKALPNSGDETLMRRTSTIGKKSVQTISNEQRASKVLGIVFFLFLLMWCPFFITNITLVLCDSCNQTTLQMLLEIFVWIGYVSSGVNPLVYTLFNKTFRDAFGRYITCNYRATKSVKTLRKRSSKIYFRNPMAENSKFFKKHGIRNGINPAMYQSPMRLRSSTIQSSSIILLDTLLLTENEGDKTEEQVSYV

What is called IC50 is the concentration at which inhibition is half-maximal. As for `c1ccc2c(c1)c1cccc3ccc4cccc2c4c31` [BENZO[E]PYRENE], the IC50 entry (in assay [1]; in assay [2]; in assay [3]; at Interstitial collagenase; in assay [4]; against Leukotriene C4 synthase) was “Not Active” each time. For the same molecule, the Ki entry in assay [3] is listed as “Not Active”.

With `CNCCc1ccccn1` [BETAHISTINE], the IC50 entry (in assay [1]; in assay [2]; in assay [3]; at Interstitial collagenase; in assay [4]; at Leukotriene C4 synthase) was “Not Active” each time. Besides, the Ki result in assay [3] is recorded as “Not Active”.

With `CC(C)C(Br)C(=O)NC(N)=O` (stereo not drawn) [BROMISOVALUM], the IC50 result (in assay [1]; in assay [2]; in assay [3]; at Interstitial collagenase; in assay [4]; against Leukotriene C4 synthase) was “Not Active” each time. The Ki entry in assay [3] is “Not Active”.

`CCCC1O[C@@H]2C[C@H]3[C@@H]4CCC5=CC(=O)C=C[C@]5(C)[C@H]4[C@@H](O)C[C@]3(C)[C@]2(C(=O)CO)O1` (stereo partly drawn) [BUDESONIDE]: the IC50 in assay [1] (read-out: IC50) is 1.99 µM; in assay [2], “Not Active”; in assay [3] it was “Not Active”; on Interstitial collagenase, “Not Active”; in assay [4] it was “Not Active”; against Leukotriene C4 synthase, “Not Active”. Moreover, the Ki entry in assay [3] was “Not Active”.

Regarding `CC(NC(C)(C)C)C(=O)c1cccc(Cl)c1` (stereo not drawn) [BUPROPION], the IC50 entry (in assay [1]; in assay [2]; in assay [3]; against Interstitial collagenase; in assay [4]; on Leukotriene C4 synthase) was “Not Active” throughout. In addition, the Ki result in assay [3] is “Not Active”.

With `CN(Cc1ccc(C(C)(C)C)cc1)Cc1cccc2ccccc12` [BUTENAFINE], the IC50 result (in assay [1]; in assay [2]; in assay [3]; against Interstitial collagenase; in assay [4]; on Leukotriene C4 synthase) was “Not Active” in each case. The Ki result in assay [3] is given as “Not Active”.

As to `C[C@H](CS)C(=O)N1CCC[C@H]1C(=O)O` [CAPTOPRIL], the IC50 result (in assay [1]; in assay [2]; in assay [3]; at Interstitial collagenase; in assay [4]; against Leukotriene C4 synthase) was “Not Active” throughout. For the same molecule, the Ki entry in assay [3] was “Not Active”.

On to `Cc1ccc(-c2cc(C(F)(F)F)nn2-c2ccc(S(N)(=O)=O)cc2)cc1` [CELECOXIB], for which the IC50 result in assay [1] was “Not Active”; in assay [2], “Not Active”; in assay [3] (read-out: IC50) it was 9.26 µM; at Interstitial collagenase, “Not Active”; in assay [4], “Not Active”; against Leukotriene C4 synthase, “Not Active”.

With `O=C(O)CCCc1ccc(N(CCCl)CCCl)cc1` [CHLORAMBUCIL], the IC50 result (in assay [1]; in assay [2]; in assay [3]; on Interstitial collagenase; in assay [4]; against Leukotriene C4 synthase) was “Not Active” in each case. Besides, the Ki result in assay [3] is “Not Active”.

On to `C[C@H](CCC(=O)O)[C@H]1CC[C@H]2[C@@H]3[C@H](O)C[C@@H]4C[C@H](O)CC[C@]4(C)[C@H]3C[C@H](O)[C@]12C` [CHOLIC ACID], for which the IC50 entry (in assay [1]; in assay [2]; in assay [3]; on Interstitial collagenase; in assay [4]; on Leukotriene C4 synthase) was “Not Active” each time. Moreover, the Ki result in assay [3] was “Not Active”.

`Cc1cc(C2CCCCC2)n(O)c(=O)c1` [CICLOPIROX]: the IC50 entry (in assay [1]; in assay [2]; in assay [3]; against Interstitial collagenase; in assay [4]; on Leukotriene C4 synthase) was “Not Active” throughout. In assay [3], the Ki entry is listed as “Not Active”.

Turning to `CC1=C2C(=CO[C@H](C)[C@H]2C)C(O)=C(C(=O)O)C1=O` [CITRININ], the IC50 result (in assay [1]; in assay [2]; in assay [3]; on Interstitial collagenase; in assay [4]; on Leukotriene C4 synthase) was “Not Active” each time. Also, in assay [3], the Ki result is “Not Active”.

In the case of `CC(C)(C)NCC(O)c1cc(Cl)c(N)c(Cl)c1` (stereo not drawn) [CLENBUTEROL], the IC50 entry (in assay [1]; in assay [2]; in assay [3]; against Interstitial collagenase; in assay [4]; on Leukotriene C4 synthase) was “Not Active” in each case. Also, the Ki entry in assay [3] is on record as “Not Active”.

Consider `CC(C)(Oc1ccc(Cl)cc1)C(=O)O` [CLOFIBRIC ACID], for which the IC50 entry (in assay [1]; in assay [2]; in assay [3]; at Interstitial collagenase; in assay [4]; on Leukotriene C4 synthase) was “Not Active” in each case. Besides, the Ki result in assay [3] is on record as “Not Active”.

In the case of `Clc1cccc(Cl)c1NC1=NCCN1` [CLONIDINE], the IC50 result (in assay [1]; in assay [2]; in assay [3]; against Interstitial collagenase; in assay [4]; against Leukotriene C4 synthase) was “Not Active” in each case. Also, the Ki entry in assay [3] is “Not Active”.

For `Cc1cc(C(C#N)c2ccc(Cl)cc2)c(Cl)cc1NC(=O)c1cc(I)cc(I)c1O` (stereo not drawn) [CLOSANTEL], the IC50 entry (in assay [1]; in assay [2]; in assay [3]; against Interstitial collagenase; in assay [4]; against Leukotriene C4 synthase) was “Not Active” in each case. In assay [3], the Ki result is on record as “Not Active”.

As for `Cc1onc(-c2ccccc2Cl)c1C(=O)N[C@@H]1C(=O)N2[C@@H]1SC(C)(C)[C@@H]2C(=O)O` [CLOXACILLIN], the IC50 entry (in assay [1]; in assay [2]; in assay [3]; against Interstitial collagenase; in assay [4]; on Leukotriene C4 synthase) was “Not Active” each time. For the same molecule, the Ki entry in assay [3] is recorded as “Not Active”.

For the molecule `CC1CC(OC(=O)C(O)c2ccccc2)CC(C)(C)C1` (stereo not drawn) [CYCLANDELATE], the IC50 entry (in assay [1]; in assay [2]; in assay [3]; against Interstitial collagenase; in assay [4]; on Leukotriene C4 synthase) was “Not Active” in each case. In assay [3], the Ki result was “Not Active”.

On to `Cc1c2oc3c(C)ccc(C(=O)N[C@@H]4C(=O)N[C@H](C(C)C)C(=O)N5CCC[C@H]5C(=O)N(C)CC(=O)N(C)[C@@H](C(C)C)C(=O)O[C@@H]4C)c3nc-2c(C(=O)N[C@@H]2C(=O)N[C@H](C(C)C)C(=O)N3CCC[C@H]3C(=O)N(C)CC(=O)N(C)[C@@H](C(C)C)C(=O)O[C@@H]2C)c(N)c1=O` [DACTINOMYCIN] (I: T[dV]P[Sar][NMeV] / II: T[dV]P[Sar][NMeV]; ester I:1-I:C, II:1-II:C; linker I:N-II:N via Actinocin(1to9)), for which the IC50 result (in assay [1]; in assay [2]; in assay [3]; at Interstitial collagenase; in assay [4]; on Leukotriene C4 synthase) was “Not Active” in each case. In addition, the Ki entry in assay [3] is reported as “Not Active”.

As to `Cc1c(O)c(=O)ccn1C` [DEFERIPRONE], the IC50 entry (in assay [1]; in assay [2]; in assay [3]; at Interstitial collagenase; in assay [4]; against Leukotriene C4 synthase) was “Not Active” throughout. The Ki entry in assay [3] is “Not Active”.

For the molecule `CNCCCN1c2ccccc2CCc2ccccc21` [DESIPRAMINE], the IC50 entry (in assay [1]; in assay [2]; in assay [3]; on Interstitial collagenase; in assay [4]; against Leukotriene C4 synthase) was “Not Active” each time. In assay [3], the Ki entry is on record as “Not Active”.

For `O=c1oc2ccccc2c(O)c1Cc1c(O)c2ccccc2oc1=O` [DICUMAROL], the IC50 entry (in assay [1]; in assay [2]; in assay [3]; at Interstitial collagenase; in assay [4]; at Leukotriene C4 synthase) was “Not Active” throughout. Also, the Ki entry in assay [3] was “Not Active”.
